Assay results taken from ChEMBL document CHEMBL3745645, “Synthesis, in vitro antitumor activity, dihydrofolate reductase inhibition, DNA intercalation and structure-activity relationship studies of 1,3,5-triazine analogues” (Bioorg Med Chem Lett, 2016).
Calls of active or inactive are those of the source. The calls are words filed in the database; no cut-off is given here.

Experiments:
Assay type in all cases: functional
CAKI-1 = experiment: Cytotoxicity against human Caki1 cells at 10 uM after 48 hrs by SRB assay
[1] = Cytotoxicity against human RXF393 cells at 10 uM after 48 hrs by SRB assay; conditions: RXF 393, 48 h, read-out: GI
SN12C = experiment: Cytotoxicity against human SN12C cells at 10 uM after 48 hrs by SRB assay; conditions: read-out: GI
[2] = Cytotoxicity against human TK10 cells at 10 uM after 48 hrs by SRB assay; conditions: TK-10, 48 h, read-out: GI
[3] = Cytotoxicity against human UO31 cells at 10 uM after 48 hrs by SRB assay; conditions: UO-31, 48 h, read-out: GI
[4] = Cytotoxicity against human DU145 cells at 10 uM after 48 hrs by SRB assay; conditions: DU-145, 48 h, read-out: GI
MCF7 = experiment: Cytotoxicity against human MCF7 cells at 10 uM after 48 hrs by SRB assay; conditions: MCF7, 48 h, read-out: GI
MDA-MB-231 = experiment: Cytotoxicity against human MDA-MB-231 cells at 10 uM after 48 hrs by SRB assay; conditions: MDA-MB-231, 48 h, read-out: GI
[5] = Cytotoxicity against human Hs 578T cells at 10 uM after 48 hrs by SRB assay; conditions: read-out: GI
[6] = Cytotoxicity against human BT549 cells at 10 uM after 48 hrs by SRB assay; conditions: BT-549, 48 h, read-out: GI
T47D = experiment: Cytotoxicity against human T47D cells at 10 uM after 48 hrs by SRB assay; conditions: read-out: GI
MDA-MB-468 = experiment: Cytotoxicity against human MDA-MB-468 cells at 10 uM after 48 hrs by SRB assay; conditions: MDA-MB-468, 48 h, read-out: GI
CCRF-CEM = experiment: Cytotoxicity against human CCRF-CEM cells at 10 uM after 48 hrs by SRB assay
[7] = Cytotoxicity against human HL-60(TB) cells at 10 uM after 48 hrs by SRB assay; conditions: HL-60, 48 h, read-out: GI
K562 = experiment: Cytotoxicity against human K562 cells at 10 uM after 48 hrs by SRB assay; conditions: K562, 48 h, read-out: GI
[8] = Cytotoxicity against human MOLT4 cells at 10 uM after 48 hrs by SRB assay; conditions: MOLT-4, 48 h, read-out: GI
[9] = Cytotoxicity against human RPMI8226 cells at 10 uM after 48 hrs by SRB assay; conditions: RPMI-8226, 48 h, read-out: GI
SR = experiment: Cytotoxicity against human SR cells at 10 uM after 48 hrs by SRB assay; conditions: read-out: GI
A549 = experiment: Cytotoxicity against human A549 cells at 10 uM after 48 hrs by SRB assay; conditions: A549, 48 h, read-out: GI
[10] = Cytotoxicity against human HOP62 cells at 10 uM after 48 hrs by SRB assay; conditions: HOP-62, 48 h, read-out: GI
[11] = Cytotoxicity against human HOP92 cells at 10 uM after 48 hrs by SRB assay; conditions: HOP-92, 48 h, read-out: GI
NCI-H226 = experiment: Cytotoxicity against human NCI-H226 cells at 10 uM after 48 hrs by SRB assay; conditions: NCI-H226, 48 h, read-out: GI
NCI-H460 = experiment: Cytotoxicity against human NCI-H460 cells at 10 uM after 48 hrs by SRB assay; conditions: NCI-H460, 48 h, read-out: GI
NCI-H522 = experiment: Cytotoxicity against human NCI-H522 cells at 10 uM after 48 hrs by SRB assay; conditions: NCI-H522, 48 h, read-out: GI
[12] = Cytotoxicity against human COLO205 cells at 10 uM after 48 hrs by SRB assay; conditions: COLO 205, 48 h, read-out: GI
[13] = Cytotoxicity against human HCC2998 cells at 10 uM after 48 hrs by SRB assay; conditions: HCC 2998, 48 h, read-out: GI
[14] = Cytotoxicity against human HCT116 cells at 10 uM after 48 hrs by SRB assay; conditions: HCT-116, 48 h, read-out: GI
[15] = Cytotoxicity against human HCT15 cells at 10 uM after 48 hrs by SRB assay; conditions: HCT-15, 48 h, read-out: GI
HT-29 = experiment: Cytotoxicity against human HT-29 cells at 10 uM after 48 hrs by SRB assay; conditions: HT-29, 48 h, read-out: GI
KM12 = experiment: Cytotoxicity against human KM12 cells at 10 uM after 48 hrs by SRB assay; conditions: KM12, 48 h, read-out: GI
[16] = Cytotoxicity against human SW620 cells at 10 uM after 48 hrs by SRB assay; conditions: SW-620, 48 h, read-out: GI
[17] = Cytotoxicity against human SF268 cells at 10 uM after 48 hrs by SRB assay; conditions: SF-268, 48 h, read-out: GI
[18] = Cytotoxicity against human SF295 cells at 10 uM after 48 hrs by SRB assay; conditions: SF-295, 48 h, read-out: GI
[19] = Cytotoxicity against human SF539 cells at 10 uM after 48 hrs by SRB assay; conditions: SF-539, 48 h, read-out: GI
[20] = Cytotoxicity against human SNB19 cells at 10 uM after 48 hrs by SRB assay; conditions: SNB-19, 48 h, read-out: GI
[21] = Cytotoxicity against human SNB75 cells at 10 uM after 48 hrs by SRB assay; conditions: SNB-75, 48 h, read-out: GI
U-251 = experiment: Cytotoxicity against human U251 cells at 10 uM after 48 hrs by SRB assay; conditions: U-251, 48 h, read-out: GI
[22] = Cytotoxicity against human LOXIMVI cells at 10 uM after 48 hrs by SRB assay; conditions: LOX IMVI, read-out: GI
Malme-3M = experiment: Cytotoxicity against human MALME-3M cells at 10 uM after 48 hrs by SRB assay; conditions: read-out: GI
M14 = experiment: Cytotoxicity against human M14 cells at 10 uM after 48 hrs by SRB assay; conditions: M14, 48 h, read-out: GI
MDA-MB-435 = experiment: Cytotoxicity against human MDA-MB-435 cells at 10 uM after 48 hrs by SRB assay; conditions: MDA-MB-435, 48 h, read-out: GI
SK-MEL-2 = experiment: Cytotoxicity against human SK-MEL-2 cells at 10 uM after 48 hrs by SRB assay; conditions: SK-MEL-2, 48 h, read-out: GI
SK-MEL-28 = experiment: Cytotoxicity against human SK-MEL-28 cells at 10 uM after 48 hrs by SRB assay; conditions: SK-MEL-28, 48 h, read-out: GI
SK-MEL-5 = experiment: Cytotoxicity against human SK-MEL-5 cells at 10 uM after 48 hrs by SRB assay; conditions: SK-MEL-5, 48 h, read-out: GI
[23] = Cytotoxicity against human UACC257 cells at 10 uM after 48 hrs by SRB assay; conditions: UACC-257, 48 h, read-out: GI
[24] = Cytotoxicity against human IGROV1 cells at 10 uM after 48 hrs by SRB assay; conditions: IGROV-1, 48 h, read-out: GI
[25] = Cytotoxicity against human OVCAR3 cells at 10 uM after 48 hrs by SRB assay; conditions: OVCAR-3, 48 h, read-out: GI
[26] = Cytotoxicity against human OVCAR4 cells at 10 uM after 48 hrs by SRB assay; conditions: OVCAR-4, 48 h, read-out: GI
OVCAR-5 = experiment: Cytotoxicity against human OVCAR5 cells at 10 uM after 48 hrs by SRB assay
[27] = Cytotoxicity against human OVCAR8 cells at 10 uM after 48 hrs by SRB assay; conditions: OVCAR-8, 48 h, read-out: GI
[28] = Cytotoxicity against human NCI-ADR-RES cells at 10 uM after 48 hrs by SRB assay; conditions: read-out: GI
[29] = Cytotoxicity against human SKOV3 cells at 10 uM after 48 hrs by SRB assay; conditions: SK-OV-3, 48 h, read-out: GI
786-0 = experiment: Cytotoxicity against human 786-0 cells at 10 uM after 48 hrs by SRB assay; conditions: 786-0, 48 h, read-out: GI
A498 = experiment: Cytotoxicity against human A498 cells at 10 uM after 48 hrs by SRB assay; conditions: A498, 48 h, read-out: GI
ACHN = experiment: Cytotoxicity against human ACHN cells at 10 uM after 48 hrs by SRB assay; conditions: read-out: GI

In the case of `Cc1nc2cc(Nc3nc(Nc4ccc(F)cc4)nc(-c4ccccc4)n3)ccc2n1Cc1ccccc1`, the “growth inhibition (GI)” value (CAKI-1) is reported as “inactive”, the inhibition of growth at 10 µM [1] is reported as 30.9% and the inhibition of growth at 10 µM (SN12C) is reported as 21.9%. For the same compound, the inhibition of growth at 10 µM [2] was 0.81%, the inhibition of growth at 10 µM [3] was 43.4% and the inhibition of growth at 10 µM [4] was 2.93%. It also gave an inhibition of growth at 10 µM (MCF7) of 54.9%, an inhibition of growth at 10 µM (MDA-MB-231) of 9.76% and an inhibition of growth at 10 µM [5] of 20.4%. It also gave an inhibition of growth at 10 µM [6] of 4.6%, an inhibition of growth at 10 µM (T47D) of 55.5% and an inhibition of growth at 10 µM (MDA-MB-468) of 27.6%. The “growth inhibition (GI)” value (CCRF-CEM) was “inactive”, the inhibition of growth at 10 µM [7] was 36.3% and the inhibition of growth at 10 µM (K562) was 38.2%. For the same compound, the inhibition of growth at 10 µM [8] was 41.8%, the inhibition of growth at 10 µM [9] was 53% and the inhibition of growth at 10 µM (SR) was 68.2%. It also gave an inhibition of growth at 10 µM (A549) of 32.5%, an inhibition of growth at 10 µM [10] of 5.32% and an inhibition of growth at 10 µM [11] of 35.6%. It also gave an inhibition of growth at 10 µM (NCI-H226) of 19.3%, an inhibition of growth at 10 µM (NCI-H460) of 16.8% and an inhibition of growth at 10 µM (NCI-H522) of 24.1%. For the same compound, the inhibition of growth at 10 µM [12] was 29.5%, the inhibition of growth at 10 µM [13] was 12% and the inhibition of growth at 10 µM [14] was 39.7%. For the same compound, the inhibition of growth at 10 µM [15] was 32.4%, the inhibition of growth at 10 µM (HT-29) was 40.6% and the inhibition of growth at 10 µM (KM12) was 39.8%. For the same compound, the inhibition of growth at 10 µM [16] was 15.4%, the inhibition of growth at 10 µM [17] was 23.8% and the inhibition of growth at 10 µM [18] was 17.3%. It also gave an inhibition of growth at 10 µM [19] of 0.21%, an inhibition of growth at 10 µM [20] of 31.5% and an inhibition of growth at 10 µM [21] of 28.4%. The inhibition of growth at 10 µM (U-251) was 36.6%, the inhibition of growth at 10 µM [22] was 12.3% and the inhibition of growth at 10 µM (Malme-3M) was 11.4%. The inhibition of growth at 10 µM (M14) was 34.1%, the inhibition of growth at 10 µM (MDA-MB-435) was 40% and the inhibition of growth at 10 µM (SK-MEL-2) was 25.4%. For the same compound, the inhibition of growth at 10 µM (SK-MEL-28) was 5.63%, the inhibition of growth at 10 µM (SK-MEL-5) was 14.5% and the inhibition of growth at 10 µM [23] was 18.7%. The inhibition of growth at 10 µM [24] was 31%, the inhibition of growth at 10 µM [25] was 18.8% and the inhibition of growth at 10 µM [26] was 39.8%. The “growth inhibition (GI)” value (OVCAR-5) was “inactive”, the inhibition of growth at 10 µM [27] was 32.2% and the inhibition of growth at 10 µM [28] was 29.5%. For the same compound, the inhibition of growth at 10 µM [29] was 1.78%, the inhibition of growth at 10 µM (786-0) was 18.4% and the inhibition of growth at 10 µM (A498) was 23.2%. The inhibition of growth at 10 µM (ACHN) was 23.6%.
